Test results reported in ChEMBL document CHEMBL1201862, “PubChem BioAssay data set” (2004).
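Compound exposure: 48 hours, 5 concentrations, 96-well plates. GI50: concentration for 50% inhibition of growth.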 Activity calls are given as the source filed them. No stated cut-off is given here; in the data, active = GI50 up to about 1.1 µM and inactive = higher.

Tests used:
Assay in all cases: NCI tumour cell line growth inhibition, 48 h
[1] = tested on: A498
[2] = tested on: A549
[3] = tested on: ACHN
[4] = tested on: CCRF-CEM
[5] = tested on: KM12
[6] = tested on: M14
[7] = tested on: MOLT-4
[8] = tested on: NCI-H522
[9] = tested on: OVCAR-3
[10] = tested on: OVCAR-4
[11] = tested on: OVCAR-5
[12] = tested on: PC-3
[13] = tested on: SF-268
[14] = tested on: TK-10
[15] = tested on: UACC-257
[16] = tested on: UO-31
[17] = tested on: NCI-H226
[18] = tested on: SF-539
[19] = tested on: SR

SMILES | GI50 [1] | GI50 [2] | GI50 [3] | GI50 [4] | GI50 [5] | GI50 [6] | GI50 [7] | GI50 [8] | GI50 [9] | GI50 [10] | GI50 [11] | GI50 [12] | GI50 [13] | GI50 [14] | GI50 [15] | GI50 [16] | GI50 [17] | GI50 [18] | GI50 [19]
C[C@@H]1OC(=O)C[C@H]2CC(=O)N(CCc3cn(S(=O)(=O)C(F)(F)F)c4ccccc34)C[C@@H]21 | > 100 µM (inactive) | > 100 µM (inactive) | > 100 µM (inactive) | > 100 µM (inactive) | > 100 µM (inactive) | > 100 µM (inactive) | > 100 µM (inactive) | > 100 µM (inactive) | > 100 µM (inactive) | > 100 µM (inactive) | > 100 µM (inactive) | > 100 µM (inactive) | > 100 µM (inactive) | > 100 µM (inactive) | > 100 µM (inactive) | > 100 µM (inactive) | – | – | –
CC(C)=CCC[C@H](C)[C@H]1CC[C@@H](C)c2cc(O)c(C)cc21 | 16.6 µM (inactive) | 17.1 µM (inactive) | 16.8 µM (inactive) | 22.9 µM (inactive) | 17.3 µM (inactive) | 18.4 µM (inactive) | 21.4 µM (inactive) | 17.4 µM (inactive) | 18.8 µM (inactive) | 15.5 µM (inactive) | 16.1 µM (inactive) | 17.4 µM (inactive) | 16.8 µM (inactive) | 18.4 µM (inactive) | 17.4 µM (inactive) | 14 µM (inactive) | 18 µM (inactive) | 17.8 µM (inactive) | –
CCOC(=O)[C@@H]1C[C@@H]1c1ccc(O)c(O)c1 | – | 29.4 µM (inactive) | 42.8 µM (inactive) | – | 26 µM (inactive) | 11 µM (inactive) | 6.18 µM (inactive) | 4.62 µM (inactive) | 16.6 µM (inactive) | – | > 100 µM (inactive) | 12.7 µM (inactive) | 30.8 µM (inactive) | > 100 µM (inactive) | 39.2 µM (inactive) | 10.7 µM (inactive) | 22.5 µM (inactive) | 20.6 µM (inactive) | 14.5 µM (inactive)
CC1=C(C(=O)Nc2ccc(Cl)c(Cl)c2)C(c2ccco2)C(C(=O)Nc2ccc(Cl)c(Cl)c2)=C(C)N1 | 12.8 µM (inactive) | 12.5 µM (inactive) | 5 µM (inactive) | 6.58 µM (inactive) | 13.4 µM (inactive) | 6.14 µM (inactive) | 4.98 µM (inactive) | 5.73 µM (inactive) | 7.98 µM (inactive) | 12.1 µM (inactive) | 15.1 µM (inactive) | – | 11.4 µM (inactive) | 6.44 µM (inactive) | 14.7 µM (inactive) | 10.1 µM (inactive) | 12.5 µM (inactive) | 13.8 µM (inactive) | 10.6 µM (inactive)
Cn1c(COC(=O)Nc2ccccc2)c(COC(=O)Nc2ccccc2)c2ccc3cc(Cl)c(Cl)cc3c21 | 1.65 µM (inactive) | 23.3 µM (inactive) | 8.79 µM (inactive) | 1.51 µM (inactive) | 10.2 µM (inactive) | 7.71 µM (inactive) | 1.1 µM (active) | – | 11 µM (inactive) | – | 10.7 µM (inactive) | 8.05 µM (inactive) | 3.57 µM (inactive) | 9.4 µM (inactive) | 8.39 µM (inactive) | 10.4 µM (inactive) | 13.4 µM (inactive) | 10.8 µM (inactive) | –
O=c1[nH]c(=O)n(C2CC(O)C(CO)O2)cc1OC/C=C/Cc1ccccc1 (configuration not stated) | – | > 100 µM (inactive) | > 100 µM (inactive) | > 100 µM (inactive) | > 100 µM (inactive) | > 100 µM (inactive) | > 100 µM (inactive) | > 100 µM (inactive) | > 100 µM (inactive) | > 100 µM (inactive) | > 100 µM (inactive) | > 100 µM (inactive) | > 100 µM (inactive) | > 100 µM (inactive) | > 100 µM (inactive) | > 100 µM (inactive) | > 100 µM (inactive) | – | > 100 µM (inactive)
COc1c(-c2cc(C)c(Cl)c(=O)[nH]2)c(O)c(OC)c2occc12 | – | > 100 µM (inactive) | > 100 µM (inactive) | – | > 100 µM (inactive) | > 100 µM (inactive) | > 100 µM (inactive) | > 100 µM (inactive) | > 100 µM (inactive) | > 100 µM (inactive) | > 100 µM (inactive) | > 100 µM (inactive) | 97.1 µM (inactive) | 42.9 µM (inactive) | > 100 µM (inactive) | 38.5 µM (inactive) | > 100 µM (inactive) | > 100 µM (inactive) | 81.8 µM (inactive)
N#Cc1sc2nc3c(c(-c4ccccc4)c2c1N)CCCC3 | > 100 µM (inactive) | > 100 µM (inactive) | 76.9 µM (inactive) | > 100 µM (inactive) | > 100 µM (inactive) | > 10 µM (inactive) | > 100 µM (inactive) | 66.5 µM (inactive) | > 10 µM (inactive) | > 100 µM (inactive) | > 100 µM (inactive) | – | – | > 100 µM (inactive) | > 100 µM (inactive) | > 100 µM (inactive) | > 100 µM (inactive) | 23.9 µM (inactive) | > 100 µM (inactive)
COc1cccc(Nc2nc3c([nH]2)c(=O)n(C)c(=O)n3C)c1 | – | > 10 µM (inactive) | – | > 10 µM (inactive) | > 10 µM (inactive) | > 10 µM (inactive) | > 10 µM (inactive) | – | – | > 10 µM (inactive) | – | > 10 µM (inactive) | > 10 µM (inactive) | > 10 µM (inactive) | > 10 µM (inactive) | – | – | – | > 10 µM (inactive)
CCOC(=O)c1c(NC(=O)c2ccccc2)sc2c1CCCC2 | > 100 µM (inactive) | – | > 100 µM (inactive) | > 100 µM (inactive) | > 100 µM (inactive) | > 100 µM (inactive) | > 100 µM (inactive) | – | > 100 µM (inactive) | – | > 100 µM (inactive) | > 100 µM (inactive) | > 100 µM (inactive) | > 100 µM (inactive) | > 100 µM (inactive) | > 100 µM (inactive) | > 100 µM (inactive) | > 100 µM (inactive) | –
COc1cc(CNc2nc3ccccc3n2Cc2ccccc2)cc(CN2CCOCC2)c1O | 21.1 µM (inactive) | 47.5 µM (inactive) | 39.6 µM (inactive) | 28.3 µM (inactive) | 34.8 µM (inactive) | 24.7 µM (inactive) | 53.8 µM (inactive) | 32.4 µM (inactive) | 20.6 µM (inactive) | 61.4 µM (inactive) | 26.5 µM (inactive) | 29.4 µM (inactive) | 59.8 µM (inactive) | 23.9 µM (inactive) | 20.1 µM (inactive) | 18.2 µM (inactive) | 30.8 µM (inactive) | 20 µM (inactive) | –
COc1ccc(C2C(C#N)=C(S)N(C3OC(COC(C)=O)C(OC(C)=O)C(OC(C)=O)C3OC(C)=O)C(C)=C2C(C)=O)cc1 (configuration not stated) | – | 70.6 µM (inactive) | 77.1 µM (inactive) | 30.3 µM (inactive) | > 100 µM (inactive) | 57 µM (inactive) | 20.1 µM (inactive) | – | 64.7 µM (inactive) | 53 µM (inactive) | > 100 µM (inactive) | 31.3 µM (inactive) | > 100 µM (inactive) | > 100 µM (inactive) | > 100 µM (inactive) | 81.8 µM (inactive) | – | > 100 µM (inactive) | 49.1 µM (inactive)
O=C(Nn1c(-c2cccs2)nc2ccc(I)cc2c1=O)c1ccccc1 | – | 18.8 µM (inactive) | 30.7 µM (inactive) | – | 27.9 µM (inactive) | 36.3 µM (inactive) | 41.3 µM (inactive) | 22.1 µM (inactive) | 16.9 µM (inactive) | 23 µM (inactive) | 37.8 µM (inactive) | 33.9 µM (inactive) | 34.4 µM (inactive) | 30.3 µM (inactive) | – | 28.3 µM (inactive) | 28.5 µM (inactive) | – | 23.6 µM (inactive)
O=C1CC(c2ccccc2)[S+]([O-])c2ccccc2N1 (configuration not stated) | – | > 100 µM (inactive) | > 100 µM (inactive) | > 100 µM (inactive) | > 100 µM (inactive) | > 100 µM (inactive) | > 100 µM (inactive) | > 100 µM (inactive) | > 100 µM (inactive) | > 100 µM (inactive) | > 100 µM (inactive) | > 100 µM (inactive) | > 100 µM (inactive) | > 100 µM (inactive) | 23.1 µM (inactive) | > 100 µM (inactive) | > 100 µM (inactive) | – | 65.2 µM (inactive)
O=C(n1c(=O)n(-c2ccc([N+](=O)[O-])cc2)c(=O)n1C(=O)C(Cl)(Cl)Cl)C(Cl)(Cl)Cl | > 100 µM (inactive) | > 100 µM (inactive) | > 100 µM (inactive) | > 100 µM (inactive) | > 100 µM (inactive) | > 100 µM (inactive) | > 10 µM (inactive) | > 100 µM (inactive) | > 100 µM (inactive) | > 100 µM (inactive) | > 100 µM (inactive) | > 100 µM (inactive) | > 100 µM (inactive) | > 100 µM (inactive) | > 100 µM (inactive) | > 100 µM (inactive) | > 100 µM (inactive) | > 100 µM (inactive) | –
COc1cc(C2=NNC(=O)c3ccccc3N2c2nc(-c3cccs3)nc3ccc(Br)cc23)cc(OC)c1OC | 34.8 µM (inactive) | 18.6 µM (inactive) | 7.11 µM (inactive) | 1.45 µM (inactive) | 4.8 µM (inactive) | 17.1 µM (inactive) | – | 9.06 µM (inactive) | 5.4 µM (inactive) | 4.55 µM (inactive) | 40.1 µM (inactive) | 10.3 µM (inactive) | 8.91 µM (inactive) | 23.2 µM (inactive) | 21.5 µM (inactive) | 16.1 µM (inactive) | 36.1 µM (inactive) | 10.9 µM (inactive) | –
